From patent US12077503B2, “Substituted cyclic amides and their use as herbicides” (FMC CORPORATION, priority 2015, dated 2024)

Tests used:
Assay type in all cases: in vivo
[1] = tested on: ragweed (common ragweed, Ambrosia elatior); experiment: Test A preemergence; conditions: Ambrosia artemisiifolia, pre-emergence, 240 h; for pest or weed control at 125 g/ha: 125 g ai/ha, Preemergence, visual injury rating after approximately 10 d, read-out: Ragweed plant response rating (0 to 100 scale, 0 is no effect, 100 is complete control); for pest or weed control at 500 g/ha: 500 g ai/ha, preemergence, visual injury rating about 10 d after treatment, 0 to 100 scale (0 no effect, 100 complete control), read-out: Ragweed plant response rating
Summary of the method: (§1)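 Preemergence soil spray on seeded pots or post-emergence spray on 1–2 leaf plants, in loam–sand blend. Greenhouse ~10 d. Visual rating 0–100 against untreated plants.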

[2] = tested on: pigweed (Amaranthus retroflexus); experiment: Test A preemergence; conditions: Amaranthus retroflexus, pre-emergence, 240 h; for pest or weed control at 125 g/ha: 125 g ai/ha, Preemergence, visual injury rating after approximately 10 d, read-out: Pigweed plant response rating (0 to 100 scale, 0 is no effect, 100 is complete control); for pest or weed control at 500 g/ha: 500 g ai/ha, preemergence, visual injury rating about 10 d after treatment, 0 to 100 scale (0 no effect, 100 complete control), read-out: Pigweed plant response rating
[3] = tested on: barnyardgrass (Echinochloa crus-galli); experiment: Test A preemergence; conditions: Echinochloa crus-galli, pre-emergence, 240 h; for pest or weed control at 125 g/ha: 125 g ai/ha, Preemergence, visual injury rating after approximately 10 d, read-out: Barnyardgrass plant response rating (0 to 100 scale, 0 is no effect, 100 is complete control); for pest or weed control at 500 g/ha: 500 g ai/ha, preemergence, visual injury rating about 10 d after treatment, 0 to 100 scale (0 no effect, 100 complete control), read-out: Barnyardgrass plant response rating
Summary of the method: as §1

[4] = tested on: giant foxtail (Setaria faberii); experiment: Test A preemergence; conditions: Setaria faberi, pre-emergence, 240 h; for pest or weed control at 125 g/ha: 125 g ai/ha, Preemergence, visual injury rating after approximately 10 d, read-out: Foxtail, Giant plant response rating (0 to 100 scale, 0 is no effect, 100 is complete control); for pest or weed control at 500 g/ha: 500 g ai/ha, preemergence, visual injury rating about 10 d after treatment, 0 to 100 scale (0 no effect, 100 complete control), read-out: Foxtail, Giant plant response rating
Summary of the method: as §1

[5] = tested on: Kochia (Kochia scoparia); experiment: Test A preemergence; conditions: Bassia scoparia, pre-emergence, 240 h; for pest or weed control at 125 g/ha: 125 g ai/ha, Preemergence, visual injury rating after approximately 10 d, read-out: Kochia plant response rating (0 to 100 scale, 0 is no effect, 100 is complete control); for pest or weed control at 500 g/ha: 500 g ai/ha, preemergence, visual injury rating about 10 d after treatment, 0 to 100 scale (0 no effect, 100 complete control), read-out: Kochia plant response rating
Summary of the method: as §1

[6] = tested on: ryegrass, Italian (Italian ryegrass, Lolium multiflorum); experiment: Test A preemergence; conditions: Lolium multiflorum, pre-emergence, 240 h; for pest or weed control at 125 g/ha: 125 g ai/ha, Preemergence, visual injury rating after approximately 10 d, read-out: Ryegrass, Italian plant response rating (0 to 100 scale, 0 is no effect, 100 is complete control); for pest or weed control at 500 g/ha: 500 g ai/ha, preemergence, visual injury rating about 10 d after treatment, 0 to 100 scale (0 no effect, 100 complete control), read-out: Ryegrass, Italian plant response rating
Summary of the method: as §1

[7] = tested on: ragweed (common ragweed, Ambrosia elatior); experiment: Test A postemergence; conditions: Ambrosia artemisiifolia, post-emergence, 240 h, 125 g ai/ha, Postemergence; visual injury after approximately 10 d; 0 to 100 scale where 0 is no effect and 100 is complete control; read-out: Plant response rating, Ragweed
Summary of the method: as §1

[8] = tested on: pigweed (Amaranthus retroflexus); experiment: Test A postemergence; conditions: Amaranthus retroflexus, post-emergence, 240 h, 125 g ai/ha, Postemergence; visual injury after approximately 10 d; 0 to 100 scale where 0 is no effect and 100 is complete control; read-out: Plant response rating, Pigweed
Summary of the method: as §1

[9] = tested on: wheat (Triticum aestivum); experiment: Test A postemergence; conditions: Triticum aestivum, post-emergence, 240 h, 125 g ai/ha, Postemergence; visual injury after approximately 10 d; 0 to 100 scale where 0 is no effect and 100 is complete control; read-out: Plant response rating, Wheat
Summary of the method: as §1

[10] = tested on: giant foxtail (Setaria faberii); experiment: Test A postemergence; conditions: Setaria faberi, post-emergence, 240 h, 125 g ai/ha, Postemergence; visual injury after approximately 10 d; 0 to 100 scale where 0 is no effect and 100 is complete control; read-out: Plant response rating, Foxtail, Giant
Summary of the method: as §1

[11] = tested on: Galium (catchweed bedstraw, Galium aparine); experiment: Test A postemergence; conditions: Galium, post-emergence, 240 h, 125 g ai/ha, Postemergence; visual injury after approximately 10 d; 0 to 100 scale where 0 is no effect and 100 is complete control; read-out: Plant response rating, Galium
Summary of the method: as §1

[12] = tested on: corn (Zea mays); experiment: Test A postemergence; conditions: Zea mays, post-emergence, 240 h, 125 g ai/ha, Postemergence; visual injury after approximately 10 d; 0 to 100 scale where 0 is no effect and 100 is complete control
Summary of the method: as §1

[13] = tested on: Kochia (Kochia scoparia); experiment: Test A postemergence; conditions: Bassia scoparia, post-emergence, 240 h, 125 g ai/ha, Postemergence; visual injury after approximately 10 d; 0 to 100 scale where 0 is no effect and 100 is complete control; read-out: Plant response rating, Kochia
Summary of the method: as §1

[14] = tested on: blackgrass (Alopecurus myosuroides); experiment: Test A postemergence; conditions: Alopecurus myosuroides, post-emergence, 240 h, 125 g ai/ha, Postemergence; visual injury after approximately 10 d; 0 to 100 scale where 0 is no effect and 100 is complete control; read-out: Plant response rating, Blackgrass
Summary of the method: as §1

[15] = tested on: ryegrass, Italian (Italian ryegrass, Lolium multiflorum); experiment: Test A postemergence; conditions: Lolium multiflorum, post-emergence, 240 h, 125 g ai/ha, Postemergence; visual injury after approximately 10 d; 0 to 100 scale where 0 is no effect and 100 is complete control; read-out: Plant response rating, Ryegrass, Italian
Summary of the method: as §1

[16] = tested on: ducksalad (Heteranthera limosa); experiment: Test B flooded paddy test; conditions: Heteranthera limosa, Flood, 250 g ai/ha; scale of 0 to 100 where 0 is no effect and 100 is complete control; read-out: Ducksalad plant response rating
Summary of the method: (§2)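 Response scored visually against untreated controls, 0 = no effect and 100 = complete control, 13–15 d after treatment in the greenhouse. Compounds added to paddy water held 3 cm above soil surface. Treatment given at 2-leaf stage.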

[17] = tested on: sedge, umbrella (small-flower umbrella sedge, Cyperus difformis); experiment: Test B flooded paddy test; conditions: Cyperus difformis, Flood, 250 g ai/ha; scale of 0 to 100 where 0 is no effect and 100 is complete control; read-out: Sedge, Umbrella plant response rating
Summary of the method: as §2

[18] = tested on: barnyardgrass (Echinochloa crus-galli); experiment: Test B flooded paddy test; conditions: Echinochloa crus-galli, Flood, 250 g ai/ha; scale of 0 to 100 where 0 is no effect and 100 is complete control; read-out: Barnyardgrass plant response rating
Summary of the method: as §2

[19] = tested on: rice (Oryra sativa); experiment: Test B flooded paddy test; conditions: Oryza sativa, Flood, 250 g ai/ha; scale of 0 to 100 where 0 is no effect and 100 is complete control; read-out: Rice plant response rating
Summary of the method: as §2

| SMILES | pest or weed control at 500 g/ha [1] [%] | pest or weed control at 125 g/ha [2] [%] | pest or weed control at 500 g/ha [2] [%] | pest or weed control at 125 g/ha [3] [%] | pest or weed control at 500 g/ha [3] [%] | pest or weed control at 125 g/ha [4] [%] | pest or weed control at 500 g/ha [4] [%] | pest or weed control at 125 g/ha [5] [%] | pest or weed control at 500 g/ha [5] [%] | pest or weed control at 125 g/ha [6] [%] | pest or weed control at 500 g/ha [6] [%] | pest or weed control at 125 g/ha [7] [%] | pest or weed control at 125 g/ha [8] [%] | plant injury at 125 g/ha [9] [%] | pest or weed control at 125 g/ha [10] [%] | pest or weed control at 125 g/ha [11] [%] | Corn plant response rating (crop injury, 0 = no effect, 100 = complete kill) at 125 g/ha [12] [%] | pest or weed control at 125 g/ha [13] [%] | pest or weed control at 125 g/ha [14] [%] | pest or weed control at 125 g/ha [15] [%] | further results |
| --- | --- | --- | --- | --- | --- | --- | --- | --- | --- | --- | --- | --- | --- | --- | --- | --- | --- | --- | --- | --- | --- |
| CSc1ccccc1NC(=O)[C@H]1C(=O)N(C)C[C@@H]1c1ccc(C)c(F)c1 [Compound 983] | 100 | 0 | 40 | 90 | 100 | 100 | 100 | 90 | 90 | 30 | 60 | 0 | 0 | 30 | 90 | 30 | 20 | 50 | 30 | 20 | pest or weed control at 125 g/ha [1]: 70%; pest or weed control at 250 g/ha [16]: 100%; pest or weed control at 250 g/ha [17]: 0%; pest or weed control at 250 g/ha [18]: 30%; pest or weed control at 250 g/ha [19]: 0% |
| CN1C[C@H](c2cc(F)cc(Cl)c2)[C@@H](C(=O)Nc2cccc(F)c2F)C1=O [Compound 974] | 90 | 20 | 60 | 90 | 100 | 90 | 90 | 90 | 100 | 70 | 90 | 20 | 40 | 70 | 90 | 50 | 70 | 70 | 70 | 70 | pest or weed control at 125 g/ha [1]: 90%; pest or weed control at 250 g/ha [16]: 100%; pest or weed control at 250 g/ha [17]: 0%; pest or weed control at 250 g/ha [18]: 60%; pest or weed control at 250 g/ha [19]: 15% |
| COc1cc(OC)cc([C@H]2CN(C)C(=O)[C@@H]2C(=O)Nc2ccccc2F)c1 [Compound 980] | 20 | 0 | 0 | 90 | 100 | 90 | 100 | 0 | 90 | 20 | 30 | 0 | 0 | 0 | 90 | 0 | 0 | 0 | 0 | 0 | pest or weed control at 125 g/ha [1]: 0%; pest or weed control at 250 g/ha [16]: 0%; pest or weed control at 250 g/ha [17]: 0%; pest or weed control at 250 g/ha [18]: 60%; pest or weed control at 250 g/ha [19]: 30% |
| CN1C[C@H](c2cc(F)cc(Cl)c2)[C@@H](C(=O)Nc2ccccc2F)C1=O [Compound 976] | 90 | 0 | 50 | 90 | 100 | 90 | 90 | 70 | 90 | 50 | 80 | 0 | 0 | 40 | 90 | 0 | 60 | 30 | 40 | 20 | pest or weed control at 250 g/ha [16]: 95%; pest or weed control at 250 g/ha [17]: 0%; pest or weed control at 250 g/ha [18]: 65%; pest or weed control at 250 g/ha [19]: 20% |
